Experimental data reported in patent US20240197938A1, “ANTIMICROBIAL COMPOUNDS BASED ON GLUCOHEPTONIC ACIDS AND THEIR SALTS” (HARCROS CHEMICALS, INC., priority 2021, published 2024).

Columns and labels:
[1] = test system: Salmonella abony; test: ASTM E2315-16 Time-Kill Procedure; format: cell-based; settings: 30 seconds
Procedure: (§1) Select compounds were tested for antimicrobial activity using ASTM method […]-16 (Standard Guide for Assessment of Antimicrobial Activity using a Time-Kill Procedure). Six microbes were tested: Candida albicans, Staphylococcus aureus, Staphylococcus epidermidis. Escherichia coli, Salmonella abony, and Listeria monocytogenes. Four chlorhexidine salts were tested: chlorhexidine di-α-glucoheptonate (Sample G), chlorhexidine di-β73-glucoheptonate (Sample H), chlorhexidine digluconate (Sample I), and chlorhexidine diacetate (Sample P). Both chlorhexidine diglucoheptonate salts were prepared at a 2:1 molar ratio of glucoheptonic acid to chlorhexidine. Dilutions of each salt were prepared using sterile water (20-30 ppm hardness), to achieve the desired wt. % concentration. Benzalkonium salts were also tested using the same procedure as set forth in Example 13. The samples were benzalkonium chloride (C12-C16) (Sample C), benzalkonium chloride (C12-C14) (Sample D), benzalkonium chloride in combination with a stoichiometric amount of α-glucoheptonate (Sample F), and benzalkonium chloride in combination with a molar excess of α-glucoheptonate (Sample N). Sample F was prepared by mixing and extensively heating a stoichiometric quantity (1:1) of sodium α-glucoheptonate with benzalkonium chloride, typified by the C12-14 alkyl chain. Sample N was prepared by simply blending benzalkonium chloride, typified by the C12-16 chain, with a molar excess of sodium α-glucoheptonate (1.6:1). Both Samples F and N contain sodium chloride.

[2] = test system: Escherichia coli; test: ASTM E2315-16 Time-Kill Procedure; format: cell-based; settings: 30 seconds
Procedure: as §1

[3] = test system: Listeria monocytogenes; test: ASTM E2315-16 Time-Kill Procedure; format: cell-based; settings: 30 seconds
Procedure: as §1

[4] = test system: all microbes (Candida albicans, Staphylococcus aureus, Staphylococcus epidermidis, Escherichia coli, Salmonella abony, Listeria monocytogenes); test: ASTM E2315-16 Time-Kill Procedure, average across all microbes; format: cell-based; settings: for Log Reduction, Average, all microbes: 30 seconds; for average Log Reduction (LR) in microbial population across all microbes: 10 minutes
Procedure: as §1, with “concentration. Samples G, H, I, and P were also tested at a concentration of 0.60 wt % active and evaluated for the average Log Reduction in microbial population at 10 minutes, across all microbes. A further test was conducted at a concentration of 1.0 wt % active and evaluated for the average Log Reduction in microbial population at 10 minutes, across all microbes.” for “concentration.”, “chloride. A further antimicrobial test was conducted to determine the log reduction at 10 minutes. Samples C, D, F, and N are as defined above.” for “chloride.”

[5] = Bubble pressure tensiometry (dynamic surface tension, calculated CMC); format: physicochemical; settings: sub-CMC, CMC and super-CMC concentrations; FIGS. 1-7
Procedure: Dynamic surface tensions of certain formulations were measured using a KRÜSS BP100 BPT Mobile bubble pressure tensiometer. Samples of the solution of Example 7 were tested by adding the test solution to a glass dish and lowering the disposable capillary tip and temperature probe into the solution. The dynamic setting was selected, and the instrument was set to collect 30 data points, the bubble age increasing from about 10 ms to about 30,000 ms.
Bubble tensiometry was used to calculate the Critical Micelle Concentration (CMC) value for each of the solutions.
FIG. 1 presents a comparison of the bubble age to surface tension for RM14A at CMC, sub-CMC, and super-CMC concentrations. FIG. 2 presents a comparison of the bubble age to surface tension for RM14B at CMC, sub-CMC, and super-CMC concentrations. FIG. 3 presents a comparison of the bubble age to surface tension for RM14C at CMC, sub-CMC, and super-CMC concentrations. FIG. 4 presents a comparison of the bubble age to surface tension for RM12A, RM13A, RM14A, and RM15A at super-CMC concentrations. FIG. 5 presents a comparison of the bubble age to surface tension for RM12A, RM13A, RM14A, and RM15A at CMC concentrations. FIG. 6 presents a comparison of the bubble age to surface tension for RM12A, RM13A, RM14A, and RM15A at CMC concentrations. FIG. 7 presents a comparison of bubble age to surface tension for RM12A, RM13A, RM14A, and RM15A at sub-CMC concentrations.

[6] = test system: Candida albicans; test: ASTM E2315-16 Time-Kill Procedure; format: cell-based; settings: 30 seconds
Procedure: as §1, with “concentration. Two glucoheptonic acids were evaluated for antimicrobial activity against the same six microbes as Example 13. Sample L was α-glucoheptonic acid. Sample M was β73-glucoheptonic acid.” for “concentration.”

[7] = test system: Staphylococcus epidermidis; test: ASTM E2315-16 Time-Kill Procedure; format: cell-based; settings: 30 seconds
Procedure: as §1, with “concentration. Two glucoheptonic acids were evaluated for antimicrobial activity against the same six microbes as Example 13. Sample L was α-glucoheptonic acid. Sample M was β73-glucoheptonic acid.” for “concentration.”

[8] = test system: Staphylococcus aureus; test: ASTM E2315-16 Time-Kill Procedure; format: cell-based; settings: 30 seconds
Procedure: as §1, with “concentration. Two glucoheptonic acids were evaluated for antimicrobial activity against the same six microbes as Example 13. Sample L was α-glucoheptonic acid. Sample M was β73-glucoheptonic acid.” for “concentration.”

For `N=C(NCCCCCCNC(=N)NC(=N)Nc1ccc(Cl)cc1)NC(=N)Nc1ccc(Cl)cc1.O=C(O)C(O)C(O)C(O)C(O)C(O)CO.O=C(O)C(O)C(O)C(O)C(O)C(O)CO` [Sample H, chlorhexidine di-β73-glucoheptonate], the “Log Reduction” value ([1]; 0.20% (wt. %)) was 3.14, the “Log Reduction” value ([1]; 0.60% (wt. %)) was 3.26 and the “Log Reduction” value ([1]; 1.00% (wt. %)) was 3.44. For the same compound, the “Log Reduction” value ([2]; 0.20% (wt. %)) was 2.39, the “Log Reduction” value ([2]; 0.60% (wt. %)) was 2.87 and the “Log Reduction” value ([2]; 1.00% (wt. %)) was 3.77. The “Log Reduction” value ([3]; 0.20% (wt. %)) was 1.57, the “Log Reduction” value ([3]; 0.60% (wt. %)) was 4.99 and the “Log Reduction” value ([3]; 1.00% (wt. %)) was 5.27. For the same compound, the “Log Reduction, Average, all microbes” value ([4]; 0.20% (wt. %)) was 2.27, the “Log Reduction, Average, all microbes” value ([4]; 0.60% (wt. %)) was 3.59 and the “Log Reduction, Average, all microbes” value ([4]; 1.00% (wt. %)) was 4.18. For the same compound, the “average Log Reduction (LR) in microbial population across all microbes” value ([4]; 0.60 wt % active) was 5.25, the “average Log Reduction (LR) in microbial population across all microbes” value ([4]; 1.0 wt % active) was 5.51 and the “performance in the Time-Kill Test” value ([4]; at lower concentrations) was “better performance than the di-α-glucoheptonate salt”. The “surface tension versus bubble age (rate and magnitude of reduction)” value [5] was “fall more rapidly and to a lower value than either the di-α-glucoheptonate or the comparative digluconate salt”, the “Log Reduction” value ([6]; 0.20% (wt. %)) was 4.26 and the “Log Reduction” value ([6]; 0.60% (wt. %)) was 4.56. The “Log Reduction” value ([6]; 1.00% (wt. %)) was 4.51, the “Log Reduction” value ([7]; 0.20% (wt. %)) was 1.47 and the “Log Reduction” value ([7]; 0.60% (wt. %)) was 2.65. For the same compound, the “Log Reduction” value ([7]; 1.00% (wt. %)) was 3.75, the “Log Reduction” value ([8]; 0.20% (wt. %)) was 0.76 and the “Log Reduction” value ([8]; 0.60% (wt. %)) was 3.19. The “Log Reduction” value ([8]; 1.00% (wt. %)) was 4.33.
